Measured values: BindingDB's records for PubMed 20126400 (University of Oklahoma, 2010)

Experiments:
[1] = target: 5-hydroxytryptamine receptor 2A (Rattus norvegicus, UniProt P14842); assay: Ray2010 Assay 25
Excerpt: ketanserin cloned PDSP web; .

D(2) dopamine receptor = D(2) dopamine receptor (Homo sapiens, UniProt P14416); assay: Ray2010 Assay 32
Excerpt: YM 09191-2 cloned PDSP web; .

[2] = target: Sigma non-opioid intracellular receptor 1 (UniProt Q58DH7); assay: Ray2010 Assay 40
Excerpt: (+)-pentazocine caudate .

[3] = target: Sigma intracellular receptor 2 (Rattus norvegicus, UniProt Q5U3Y7); assay: Ray2010 Assay 42
Excerpt: DTG liver .

[4] = target: Muscarinic acetylcholine receptor (UniProt F1N5C5); assay: Ray2010 Assay 45
Excerpt: pirenzepine hippocampus .

[5] = target: T1, Muscarinic acetylcholine receptor M2 (Rattus norvegicus, UniProt P10980); assay: Ray2010 Assay 48
Excerpt: (§1) N-methylacoblamine forebrain .

[6] = target: Muscarinic acetylcholine receptor M3 (Rattus norvegicus, UniProt P08483); assay: Ray2010 Assay 48
Excerpt: as §1

[7] = target: Muscarinic acetylcholine receptor M2 (Bos taurus, UniProt P41985); assay: Ray2010 Assay 49
Excerpt: QBN cortex .

[8] = target: T1, Muscarinic acetylcholine receptor M2; assay: Ray2010 Assay 50
Excerpt: AF-DX384 forebrain .

[9] = target: T2, Glutamate receptor ionotropic, NMDA 2D (Rattus norvegicus, UniProt Q62645); assay: Ray2010 Assay 68
Excerpt: MK-801 basal forebrain .

[10] = target: T2, Glutamate receptor ionotropic, NMDA 2D; assay: Ray2010 Assay 69
Excerpt: dizocilpine forebrain .

[11] = target: Gamma-aminobutyric acid receptor subunit alpha-1 (Bos taurus, UniProt P08219); assay: Ray2010 Assay 70
Excerpt: muscimol cortex .

[12] = target: T3, 5-hydroxytryptamine receptor 2C (Homo sapiens, UniProt P28335); assay: Ray2010 Assay 74
T3 sequence (P28335 whole entry): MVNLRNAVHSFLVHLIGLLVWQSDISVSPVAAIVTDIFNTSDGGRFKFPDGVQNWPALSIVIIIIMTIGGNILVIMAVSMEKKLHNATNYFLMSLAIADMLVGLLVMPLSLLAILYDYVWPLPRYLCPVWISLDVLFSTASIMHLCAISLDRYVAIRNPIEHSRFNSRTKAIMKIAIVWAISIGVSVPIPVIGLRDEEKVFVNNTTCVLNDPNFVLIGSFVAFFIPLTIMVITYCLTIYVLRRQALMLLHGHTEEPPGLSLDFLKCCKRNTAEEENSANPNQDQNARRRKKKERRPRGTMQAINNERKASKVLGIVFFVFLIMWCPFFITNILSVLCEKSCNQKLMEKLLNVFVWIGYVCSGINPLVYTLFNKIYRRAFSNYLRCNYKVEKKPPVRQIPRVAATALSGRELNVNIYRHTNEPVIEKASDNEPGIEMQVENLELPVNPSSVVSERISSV
Excerpt: (§2) Table S2 shows raw Ki data for the current study combined with data collected from the literature for the ten additional compounds.

[13] = target: Gamma-aminobutyric acid receptor subunit beta-1 (Homo sapiens, UniProt P18505); assay: Ray2010 Assay 74
Excerpt: as §2

Glutamate receptor 4 = Glutamate receptor 4 (Homo sapiens, UniProt P48058); assay: Ray2010 Assay 74
Excerpt: as §2

[14] = target: Sigma intracellular receptor 2 (Homo sapiens, UniProt Q5BJF2); assay: Ray2010 Assay 74
Excerpt: as §2

T1 sequence (P10980 whole entry): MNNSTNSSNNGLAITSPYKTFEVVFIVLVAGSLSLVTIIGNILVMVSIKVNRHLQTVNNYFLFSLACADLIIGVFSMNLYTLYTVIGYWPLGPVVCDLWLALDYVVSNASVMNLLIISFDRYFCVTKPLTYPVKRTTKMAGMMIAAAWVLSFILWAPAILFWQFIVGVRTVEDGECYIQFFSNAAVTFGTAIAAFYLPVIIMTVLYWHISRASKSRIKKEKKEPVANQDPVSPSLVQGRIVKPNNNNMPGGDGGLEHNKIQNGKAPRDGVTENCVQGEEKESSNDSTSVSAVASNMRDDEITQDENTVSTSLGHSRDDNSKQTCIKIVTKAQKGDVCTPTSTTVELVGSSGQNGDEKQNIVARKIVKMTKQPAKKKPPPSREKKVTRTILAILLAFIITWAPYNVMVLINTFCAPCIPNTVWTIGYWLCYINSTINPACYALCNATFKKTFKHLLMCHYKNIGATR
T2 sequence (Q62645 whole entry): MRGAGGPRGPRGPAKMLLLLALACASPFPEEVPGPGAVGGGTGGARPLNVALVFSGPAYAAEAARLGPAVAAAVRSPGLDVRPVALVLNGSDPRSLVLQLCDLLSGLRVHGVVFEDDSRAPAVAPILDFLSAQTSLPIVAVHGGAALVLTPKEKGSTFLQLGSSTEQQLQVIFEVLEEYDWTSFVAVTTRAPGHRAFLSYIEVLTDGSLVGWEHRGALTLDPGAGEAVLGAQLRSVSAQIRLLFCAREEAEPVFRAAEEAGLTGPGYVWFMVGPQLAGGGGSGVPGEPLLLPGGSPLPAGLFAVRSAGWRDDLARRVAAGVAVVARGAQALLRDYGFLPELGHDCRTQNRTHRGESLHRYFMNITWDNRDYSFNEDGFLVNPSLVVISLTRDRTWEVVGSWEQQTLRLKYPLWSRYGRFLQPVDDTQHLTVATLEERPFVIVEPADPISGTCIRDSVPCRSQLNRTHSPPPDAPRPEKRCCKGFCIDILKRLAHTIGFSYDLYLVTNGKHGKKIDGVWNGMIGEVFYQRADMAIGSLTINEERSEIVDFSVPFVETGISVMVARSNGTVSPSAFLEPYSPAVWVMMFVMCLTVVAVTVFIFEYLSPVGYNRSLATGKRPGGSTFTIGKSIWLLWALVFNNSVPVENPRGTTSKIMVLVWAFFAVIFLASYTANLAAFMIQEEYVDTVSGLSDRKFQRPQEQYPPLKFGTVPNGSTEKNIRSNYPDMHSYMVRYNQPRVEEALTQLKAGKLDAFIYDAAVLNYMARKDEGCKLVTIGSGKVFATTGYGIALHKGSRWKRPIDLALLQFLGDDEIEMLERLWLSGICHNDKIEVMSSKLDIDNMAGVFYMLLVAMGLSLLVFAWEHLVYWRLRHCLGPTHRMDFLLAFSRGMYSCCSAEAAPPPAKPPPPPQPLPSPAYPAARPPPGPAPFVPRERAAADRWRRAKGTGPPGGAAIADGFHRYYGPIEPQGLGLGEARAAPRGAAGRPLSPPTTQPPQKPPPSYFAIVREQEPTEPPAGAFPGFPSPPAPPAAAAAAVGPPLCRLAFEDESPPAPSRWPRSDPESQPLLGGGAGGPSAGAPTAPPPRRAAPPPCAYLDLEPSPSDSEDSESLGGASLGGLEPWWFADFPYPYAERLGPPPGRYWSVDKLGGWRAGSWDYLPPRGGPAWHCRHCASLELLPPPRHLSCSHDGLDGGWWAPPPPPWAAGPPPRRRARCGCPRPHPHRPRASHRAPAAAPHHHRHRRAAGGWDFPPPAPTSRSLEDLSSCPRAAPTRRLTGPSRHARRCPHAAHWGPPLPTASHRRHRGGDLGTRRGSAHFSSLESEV
Chain of Sigma intracellular receptor 2 (Rattus norvegicus, UniProt Q5U3Y7) (Q5U3Y7 whole entry): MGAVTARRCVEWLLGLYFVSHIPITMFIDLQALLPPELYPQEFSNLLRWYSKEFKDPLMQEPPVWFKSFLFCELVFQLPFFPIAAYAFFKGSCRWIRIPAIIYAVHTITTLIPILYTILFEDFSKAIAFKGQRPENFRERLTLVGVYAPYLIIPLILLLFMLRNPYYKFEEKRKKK
Chain of Muscarinic acetylcholine receptor M2 (Bos taurus, UniProt P41985) (P41985 whole entry): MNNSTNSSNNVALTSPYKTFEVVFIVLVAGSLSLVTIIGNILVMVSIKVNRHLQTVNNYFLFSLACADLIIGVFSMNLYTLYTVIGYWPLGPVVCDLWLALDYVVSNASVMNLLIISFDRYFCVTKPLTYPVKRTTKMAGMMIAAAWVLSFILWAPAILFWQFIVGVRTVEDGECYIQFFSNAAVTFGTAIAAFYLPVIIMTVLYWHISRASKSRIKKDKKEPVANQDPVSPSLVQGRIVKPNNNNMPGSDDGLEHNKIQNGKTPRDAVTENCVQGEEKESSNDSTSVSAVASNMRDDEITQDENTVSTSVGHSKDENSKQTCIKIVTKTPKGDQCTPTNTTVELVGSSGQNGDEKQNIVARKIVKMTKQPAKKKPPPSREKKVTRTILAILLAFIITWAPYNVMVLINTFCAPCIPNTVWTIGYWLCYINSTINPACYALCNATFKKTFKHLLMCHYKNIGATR
Chain of Muscarinic acetylcholine receptor M3 (P08483 whole entry): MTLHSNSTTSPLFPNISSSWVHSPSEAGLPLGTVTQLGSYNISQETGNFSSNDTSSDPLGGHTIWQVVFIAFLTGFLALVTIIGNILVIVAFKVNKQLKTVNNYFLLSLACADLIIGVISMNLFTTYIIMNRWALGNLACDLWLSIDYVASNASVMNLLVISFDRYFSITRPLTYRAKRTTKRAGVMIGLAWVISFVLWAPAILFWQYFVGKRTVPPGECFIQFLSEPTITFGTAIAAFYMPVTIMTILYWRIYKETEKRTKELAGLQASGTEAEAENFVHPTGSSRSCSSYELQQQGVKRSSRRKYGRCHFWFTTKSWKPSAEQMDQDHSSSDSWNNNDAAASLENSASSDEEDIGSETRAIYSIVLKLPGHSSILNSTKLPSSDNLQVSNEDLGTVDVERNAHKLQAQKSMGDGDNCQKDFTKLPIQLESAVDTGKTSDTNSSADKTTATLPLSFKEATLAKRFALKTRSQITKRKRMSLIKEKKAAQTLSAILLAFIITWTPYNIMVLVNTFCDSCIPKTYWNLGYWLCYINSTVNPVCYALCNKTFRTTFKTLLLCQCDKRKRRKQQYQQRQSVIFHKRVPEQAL
Chain of Sigma non-opioid intracellular receptor 1 (Q58DH7 whole entry): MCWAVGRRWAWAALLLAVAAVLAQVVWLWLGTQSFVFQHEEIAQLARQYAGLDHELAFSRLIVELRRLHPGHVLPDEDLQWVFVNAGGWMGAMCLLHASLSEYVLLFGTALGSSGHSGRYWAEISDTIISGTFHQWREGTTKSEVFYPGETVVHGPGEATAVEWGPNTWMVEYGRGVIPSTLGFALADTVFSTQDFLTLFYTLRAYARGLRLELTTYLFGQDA
Chain of 5-hydroxytryptamine receptor 2A (P14842 whole entry): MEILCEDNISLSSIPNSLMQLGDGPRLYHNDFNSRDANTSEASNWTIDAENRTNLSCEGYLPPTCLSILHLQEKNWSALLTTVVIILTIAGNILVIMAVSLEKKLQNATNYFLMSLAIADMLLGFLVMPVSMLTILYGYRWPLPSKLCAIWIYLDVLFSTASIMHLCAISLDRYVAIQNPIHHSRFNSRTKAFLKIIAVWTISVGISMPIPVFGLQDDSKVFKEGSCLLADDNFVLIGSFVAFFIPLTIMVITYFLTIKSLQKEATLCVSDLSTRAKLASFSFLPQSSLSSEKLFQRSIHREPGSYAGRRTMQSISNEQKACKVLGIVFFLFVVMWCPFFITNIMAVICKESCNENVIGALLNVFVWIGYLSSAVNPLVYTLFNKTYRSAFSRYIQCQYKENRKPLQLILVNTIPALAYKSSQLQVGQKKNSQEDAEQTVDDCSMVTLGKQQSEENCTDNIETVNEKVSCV
Chain of Glutamate receptor 4 (P48058 whole entry): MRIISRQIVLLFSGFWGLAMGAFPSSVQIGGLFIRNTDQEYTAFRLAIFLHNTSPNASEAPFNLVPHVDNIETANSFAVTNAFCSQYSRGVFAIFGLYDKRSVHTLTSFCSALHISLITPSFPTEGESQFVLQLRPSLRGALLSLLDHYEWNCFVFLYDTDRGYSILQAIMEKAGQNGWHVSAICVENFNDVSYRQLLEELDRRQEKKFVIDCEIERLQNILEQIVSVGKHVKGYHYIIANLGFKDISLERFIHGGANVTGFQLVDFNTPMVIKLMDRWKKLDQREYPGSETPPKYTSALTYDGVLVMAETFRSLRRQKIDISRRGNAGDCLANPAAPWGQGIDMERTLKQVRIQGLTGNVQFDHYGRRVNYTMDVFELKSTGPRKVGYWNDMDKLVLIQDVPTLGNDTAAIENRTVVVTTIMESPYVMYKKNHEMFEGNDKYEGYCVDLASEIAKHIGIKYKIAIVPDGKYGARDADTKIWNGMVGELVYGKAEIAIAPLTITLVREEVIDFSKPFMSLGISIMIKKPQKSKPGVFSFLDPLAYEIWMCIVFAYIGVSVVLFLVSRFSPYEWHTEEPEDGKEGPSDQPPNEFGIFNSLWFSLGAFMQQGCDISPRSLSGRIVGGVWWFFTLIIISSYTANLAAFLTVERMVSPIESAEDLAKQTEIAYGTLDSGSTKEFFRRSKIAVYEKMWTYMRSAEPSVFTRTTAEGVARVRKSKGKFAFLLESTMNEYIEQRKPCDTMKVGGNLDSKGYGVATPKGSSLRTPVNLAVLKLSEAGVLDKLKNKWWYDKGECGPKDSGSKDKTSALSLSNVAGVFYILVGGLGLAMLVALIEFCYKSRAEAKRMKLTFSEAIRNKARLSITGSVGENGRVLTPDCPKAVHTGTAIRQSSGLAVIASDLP
Chain of Sigma intracellular receptor 2 (Homo sapiens, UniProt Q5BJF2) (Q5BJF2 whole entry): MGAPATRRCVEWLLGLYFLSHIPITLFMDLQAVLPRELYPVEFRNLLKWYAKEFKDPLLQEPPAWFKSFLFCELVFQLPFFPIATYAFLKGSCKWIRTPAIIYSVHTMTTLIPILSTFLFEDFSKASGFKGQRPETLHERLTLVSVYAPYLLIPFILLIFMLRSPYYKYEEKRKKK

With `CC[C@H]1C[C@@H]2C[C@H]3c4[nH]c5ccc(OC)cc5c4CCN(C2)[C@@H]13` the Ki [1] was greater than 10 µM, the Ki (D(2) dopamine receptor) was greater than 10 µM and the Ki [2] was 2.5 µM. The Ki [3] was 0.0904 µM, the Ki [4] was 31.6 µM and the Ki [5] was 50.1 µM. It also gave a Ki [6] of 12.5 µM, a Ki [7] of 31 µM and an IC50 [8] of 5.9 µM. For the same compound, the Ki [9] was 3.9 µM, the IC50 [10] was 3.2 µM and the Ki [11] was greater than 100 µM. For the same compound, the Ki [12] was greater than 10 µM, the Ki [13] was greater than 10 µM and the Ki (Glutamate receptor 4) was greater than 10 µM. It also gave a Ki [14] of 0.206 µM.
